# Measurements taken from article PMC4712254 (Clinical Pharmacokinetics, 2015).
# Marks after values point to notes of the source that are not given here.
# Experiments:
# [1] = both CYP2B6 probe drugs; cited from earlier work
# [2] = test system: CYP2D6; test: Basel cocktail phenotyping of CYP2D6; type: in vivo, human; conditions: plasma, geometric mean (90 % CI)
# [3] = test system: p-glycoprotein (pgp); conditions: cited from earlier work
# [4] = test system: CYP2C9; test: Basel cocktail phenotyping of CYP2C9; type: in vivo, human; conditions: for [los]/[E3174]: plasma, geometric mean (90 % CI); for metabolic ratios at 6 h: the other subjects
# [5] = test system: CYP2B6; test: Basel cocktail phenotyping of CYP2B6; type: in vivo, human; conditions: plasma, geometric mean (90 % CI)
# [6] = Plasma pharmacokinetics of probe drugs and metabolites in healthy male subjects
# [7] = test system: CYP2C19; test: Basel cocktail phenotyping of CYP2C19; type: in vivo, human; conditions: plasma, geometric mean (90 % CI)
# [8] = test system: CYP3A4; test: Basel cocktail phenotyping of CYP3A4; type: in vivo, human; conditions: plasma, geometric mean (90 % CI)
# [9] = test system: CYP2C19; conditions: cited from earlier work
# [10] = test system: CYP1A2; conditions: cited from earlier work
# [11] = test system: CYP2B6; conditions: cited from earlier work
# [12] = test system: CYP2B6; conditions: cited from earlier work; remark: listed apart in the source
# [13] = 2 h, Cocktail + inducer (rifampicin)
# [14] = 4 h, Cocktail + inducer (rifampicin)
# [15] = 6 h, Cocktail + inducer (rifampicin)
# [16] = 8 h, Cocktail + inducer (rifampicin)
smiles,measurement,setting,value
CC(NC(C)(C)C)C(=O)c1cccc(Cl)c1 (stereo not shown) [bupropion],half-life,[1],50 to 70 h
COCCc1ccc(OCC(O)CNC(C)C)cc1 (stereo not shown) [metoprolol],[met]/[OH-met],[2]; [13],1.83 (1.60–2.18) nt^d
same,[met]/[OH-met],"[2]; 2 h, Cocktail alone (baseline)",1.93 (1.56–2.47)^e
same,[met]/[OH-met],[2]; [14],2.02 (1.84–2.31) ns^a
same,[met]/[OH-met],"[2]; 4 h, Cocktail + inhibitors",6.60 (5.90–7.85)***
same,[met]/[OH-met],"[2]; 4 h, Cocktail alone (baseline)",2.20 (2.00–2.54)
same,[met]/[OH-met],[2]; [15],1.88 (1.69–2.20)*^a
same,[met]/[OH-met],"[2]; 6 h, Cocktail + inhibitors",8.99 (8.33–10.01)***
same,[met]/[OH-met],"[2]; 6 h, Cocktail alone (baseline)",2.36 (2.16–2.69)^a
same,[met]/[OH-met],[2]; [16],1.67 (1.51–1.93) ns^b
same,[met]/[OH-met],"[2]; 8 h, Cocktail + inhibitors",9.90(9.06–11.39)***
same,[met]/[OH-met],"[2]; 8 h, Cocktail alone (baseline)",2.11 (1.91–2.44)
CCCCc1nc(Cl)c(CO)n1Cc1ccc(-c2ccccc2-c2nn[nH]n2)cc1 [losartan],p-glycoprotein (pgp) substrate,[3],transported by p-glycoprotein
same,[los]/[E3174],[4]; [13],0.44 (0.37–0.96)**^b
same,[los]/[E3174],"[4]; 2 h, Cocktail + inhibitors",3.39 (2.66–4.62)ns^f
same,[los]/[E3174],"[4]; 2 h, Cocktail alone (baseline)",1.18 (1.17–2.99)
same,[los]/[E3174],[4]; [14],0.08 (0.06–0.16)**^a
same,[los]/[E3174],"[4]; 4 h, Cocktail + inhibitors",1.17 (1.03–2.09)***
same,[los]/[E3174],"[4]; 4 h, Cocktail alone (baseline)",0.17 (0.14–0.37)
same,[los]/[E3174],[4]; [15],0.06 (0.04–0.12)***^c
same,[los]/[E3174],"[4]; 6 h, Cocktail + inhibitors",0.55 (0.47–1.01)***^a
same,[los]/[E3174],"[4]; 6 h, Cocktail alone (baseline)",0.10 (0.08–0.19)
same,[los]/[E3174],[4]; [16],0.05 (0.04–0.07) ns^b
same,[los]/[E3174],"[4]; 8 h, Cocktail + inhibitors",0.24 (0.20–0.42)***
same,[los]/[E3174],"[4]; 8 h, Cocktail alone (baseline)",0.05 (0.04–0.08)
same,metabolic ratios at 6 h,[4]; baseline,0.04–0.11
same,metabolic ratios at 6 h,[4]; inhibition,0.20–0.53
O=C1Nc2ccc(Cl)cc2[C@@](C#CC2CC2)(C(F)(F)F)O1 [efavirenz],[efa]/[OH-efa],[5]; [14],19.3 (17.9–21.3)***^a
same,[efa]/[OH-efa],"[5]; 4 h, Cocktail + inhibitors",84.1 (71.9–115.0)***
same,[efa]/[OH-efa],"[5]; 4 h, Cocktail alone (baseline)",38.7 (34.8–48.5)
same,[efa]/[OH-efa],[5]; [15],23.1 (21.3–25.7)***^a
same,[efa]/[OH-efa],"[5]; 6 h, Cocktail + inhibitors",77.6 (69.3–94.2)***^a
same,[efa]/[OH-efa],"[5]; 6 h, Cocktail alone (baseline)",43.7 (39.5–51.3)
same,[efa]/[OH-efa],[5]; [16],27.7 (26.0–30.8)***^a
same,[efa]/[OH-efa],"[5]; 8 h, Cocktail + inhibitors",88.7 (79.7–108.0)***
same,[efa]/[OH-efa],"[5]; 8 h, Cocktail alone (baseline)",53.2 (47.8–62.6)
"O=C1Nc2c(O)cc(Cl)cc2[C@@](C#CC2(O)CC2)(C(F)(F)F)O1 [8,14-dihydroxy-efavirenz]",plasma concentrations after deglucuronidation,[6]; after deglucuronidation,lower than 6 ng/mL
same,plasma concentrations,[6]; without deglucuronidation,below the limit of quantification
COc1ccc2[nH]c([S+]([O-])Cc3ncc(C)c(OC)c3C)nc2c1 (stereo not shown) [omeprazole],[ome]/[OH-ome],[7]; [13],0.25 (0.22–0.35)**^a
same,[ome]/[OH-ome],"[7]; 2 h, Cocktail + inhibitors",25.8 (22.7–33.2)***
same,[ome]/[OH-ome],"[7]; 2 h, Cocktail alone (baseline)",1.08 (0.90–1.46)
same,[ome]/[OH-ome],[7]; [14],0.18 (0.15–0.24)***^a
same,[ome]/[OH-ome],"[7]; 4 h, Cocktail + inhibitors",18.1 (16.0–22.5)***
same,[ome]/[OH-ome],"[7]; 4 h, Cocktail alone (baseline)",0.49 (0.38–0.86)
same,[ome]/[OH-ome],"[7]; 6 h, Cocktail + inhibitors",14.6 (12.5–18.8)nt^a
same,[ome]/[OH-ome],"[7]; 6 h, Cocktail alone (baseline)",0.28 (0.18–0.55)^b
Cc1ncc2n1-c1ccc(Cl)cc1C(c1ccccc1F)=NC2 [midazolam],[mid]/[OH-mid],[8]; [13],1.73 (1.54–2.11) ns^a
same,[mid]/[OH-mid],"[8]; 2 h, Cocktail + inhibitors",3.46 (3.10–4.29)***
same,[mid]/[OH-mid],"[8]; 2 h, Cocktail alone (baseline)",1.31 (1.16–1.77)
same,[mid]/[OH-mid],"[8]; 4 h, Cocktail alone (baseline)",1.51 (1.33–1.97)
CO[C@H]1/C=C/O[C@@]2(C)Oc3c(C)c(O)c4c(O)c(c(/C=N/N5CCN(C)CC5)c(O)c4c3C2=O)NC(=O)/C(C)=C\C=C\[C@H](C)[C@H](O)[C@@H](C)[C@@H](O)[C@@H](C)[C@H](OC(C)=O)[C@@H]1C [rifampicin],concentrations in one subject compared with the other subjects,"[6]; subject excluded from induction data, higher",approximately 100 fold
same,"in vivo inducer class, 2C19",[9],moderate inducer (50–80 % decrease in AUC)
same,"in vivo inducer class, CYP1A2",[10],weak inducer
same,"in vivo inducer class, CYP2B6",[11],moderate inducer (50–80 % decrease in AUC)
Fc1ccc([C@@H]2CCNC[C@H]2COc2ccc3c(c2)OCO3)cc1 [paroxetine],CYP2B6 inhibition in vitro,[12],CYP2B6 inhibitor in vitro
